# Results: US11510928B2, “Use of mirtazapine in the treatment of inflammatory disorders, autoimmune disease and PBC” (UTI Limited Partnership, priority 2017, dated 2022)
# Columns and labels:
# [1] = system: antigen-induced arthritis (mBSA); experiment: Antigen-induced arthritis (AIA) mouse model; assay type: in vivo; details: 20 mg/kg, 24 hrs post-antigen challenge
# Text: The antigen-induced arthritis (AIA) mouse model is a well-characterized model that is extensively used to provide insights into the pathogenesis of RA. AIA is critically dependent on an early innate immune response (within 24 hrs post-induction) mediated by synovial TM's and neutrophils which drive subsequent adaptive immune responses and chronic joint inflammation. Proinflammatory cytokines (eg. TNFα, IL-17A and IL-1) and chemokines (eg. CXCL1, CXCL2) recruit neutrophils to the joint in this model. AIA is induced by the intradermal (tail base) injection of 500 μg methylated BSA (mBSA; Sigma) in 50 μl saline+complete Freund's adjuvant (CFA; Sigma) on day 0. 14 days later mice receive an antigen challenge with mBSA (10 μg/10 μl saline) injection into the left knee joint. At various time points after antigen challenge knee swelling is assessed using calipers, and the knee cavity exposed and inflammatory response and tissue injury assessed by immune cell analyses (cell phenotyping by FACS, using our published protocols), cytokine/chemokine expression (by Luminex® and qRT-PCR), and scoring of histological joint damage. Assessment of joint innate immune responses will occur at 24 and 48 hrs post-antigen challenge42. […] Hypernociception was measured before and 24 hrs post-antigen challenge using an automatic dynamic plantar algesiometer (Hugo Basile Inc).
# [2] = system: peripheral blood and splenic B cells; experiment: Peripheral blood and splenic B cells by flow cytometry (Example 6); assay type: in vivo, mouse; details: 20 mg/kg ip, 5 hrs post-treatment
# Experimental: Male C57BL/6 mice (age 8-10 wks) were treated with mirt (20 mg/kg ip) or vehicle and livers removed 3-5 hrs later for B cell isolation and characterization by flow cytometry (FACS). Similarly peripheral blood and splenic B cells numbers were determined by FACS. Liver cytokine and chemokine levels were measured by Luminex®.
smiles,measurement,setting,value
CN1CCN2c3ncccc3Cc3ccccc3C2C1 (stereo not shown) [Mirtazapine],AIA-induced hypernociception,[1],attenuates
same,Joint total neutrophil recruitment,[1],reduces
same,Synovial fluid CXCL1 levels,[1],but not CXCL1
same,Synovial fluid IL-1α levels,[1],reduces
same,Synovial fluid TNFα levels,[1],reduces
same,Peripheral blood B cells (as % of total CD45+ leukocytes),[2],highly significant drop
same,Splenic B cell numbers,[2],paralleled by similar changes
